# Reference: paper PMC3934385, “Componential Profile and Amylase Inhibiting Activity of Phenolic Compounds from Calendula officinalis L. Leaves” (The Scientific World Journal, 2014)
# Target: T1, amylase from Aspergillus niger
# T1 construct: gene aamA
# Assay: starch hydrolysis, glucose oxidase/peroxidase coupled, A510 microplate
# Assay type: biochemical
# Conditions: 2% starch, phosphate pH 5.0, preincubation 20 min 45°C, then 30 min 50°C
# Excerpt: starch hydrolysis, glucose oxidase/peroxidase coupled, A510 microplate on amylase from Aspergillus niger
Compound,IC50,IC50 (μg mL^-1)
"O=C(O)/C=C/c1ccc(O)c(O)c1 [compound 7, caffeic acid]",2.53 µg/mL,–
"COc1cc(-c2oc3cc(O)cc(O)c3c(=O)c2O[C@@H]2O[C@H](CO)[C@@H](O)[C@H](O)[C@H]2O)ccc1O [compound 22, isorhamnetin-3-O-β-D-glucopyranoside]",23.41 µg/mL,–
"COc1cc(-c2oc3cc(O)cc(O)c3c(=O)c2O)ccc1O [compound 21, isorhamnetin]",2.64 µg/mL,–
"O=C(/C=C/c1ccc(O)c(O)c1)O[C@@H]1C[C@](O)(C(=O)O)C[C@@H](OC(=O)/C=C/c2ccc(O)c(O)c2)[C@H]1O [compound 9, 3,5-di-O-caffeoylquinic acid]",25.63 µg/mL,–
"O=c1ccc2ccc(O)cc2o1 [compound 12, umbelliferone]",> 100 µg/mL,–
"C[C@@H]1O[C@@H](OC[C@H]2O[C@@H](Oc3c(-c4ccc(O)c(O)c4)oc4cc(O)cc(O)c4c3=O)[C@H](O)[C@@H](O)[C@@H]2O)[C@H](O)[C@H](O)[C@H]1O [compound 20, rutin]",89.85 µg/mL,–
"COc1cc2ccc(=O)oc2cc1O [compound 16, scopoletin]",–,~ 100 μg mL^−1
"COc1cc(C(=O)OC[C@H]2OC(O)[C@H](O)[C@@H](O)[C@@H]2O)ccc1O (mixture of isomers) [compound 6, 6′-O-vanilloyl-β-D-glucopyranose]",79.18 µg/mL,–
"COc1cc(C(=O)O[C@@H]2O[C@H](CO)[C@@H](O)[C@H](O)[C@H]2O)ccc1O [compound 5, 1′-O-vanilloyl-β-D-glucopyranose]",73.69 µg/mL,–
"O=c1c(O[C@@H]2O[C@H](CO)[C@@H](O)[C@H](O)[C@H]2O)c(-c2ccc(O)c(O)c2)oc2cc(O)cc(O)c12 [compound 18, isoquercitrin]",15.45 µg/mL,–
"O=C(O[C@@H]1O[C@H](CO)[C@@H](O)[C@H](O)[C@H]1O)c1ccc(O)cc1 [compound 1, 1′-O-p-hydroxybenzoyl-β-D-glucopyranose]",> 100 µg/mL,–
"COc1cc(-c2oc3cc(O)cc(O)c3c(=O)c2O[C@@H]2O[C@H](CO[C@@H]3O[C@@H](C)[C@H](O)[C@@H](O)[C@H]3O)[C@@H](O)[C@H](O)[C@H]2O)ccc1O [compound 24, narcissin]",> 100 µg/mL,–
"O=C(/C=C/c1ccc(O)c(O)c1)O[C@@H]1C[C@](OC(=O)/C=C/c2ccc(O)c(O)c2)(C(=O)O)C[C@@H](O)[C@H]1O [compound 10, 1,5-di-O-caffeoylquinic acid]",37.15 µg/mL,–
"O=C(/C=C/c1ccc(O)c(O)c1)O[C@@H]1[C@H](O)C[C@@](O)(C(=O)O)C[C@H]1OC(=O)/C=C/c1ccc(O)c(O)c1 [compound 11, 4,5-di-O-caffeoylquinic acid]",26.65 µg/mL,–
"O=C(O[C@@H]1O[C@H](CO)[C@@H](O)[C@H](O)[C@H]1O)c1ccc(O)c(O)c1 [compound 3, 1′-O-protocatechuoyl-β-D-glucopyranose]",62.46 µg/mL,–
"COc1cc(-c2oc3cc(O)cc(O)c3c(=O)c2O[C@@H]2O[C@H](COC(C)=O)[C@@H](O)[C@H](O)[C@H]2O)ccc1O [compound 23, isorhamnetin-3-O-(6′′-acetyl)-β-D-glucopyranoside]",–,~ 100 μg mL^−1
"CC(=O)OC[C@H]1O[C@@H](Oc2c(-c3ccc(O)c(O)c3)oc3cc(O)cc(O)c3c2=O)[C@H](O)[C@@H](O)[C@@H]1O [compound 19, quercetin-3-O-(6′′-acetyl)-β-D-glucopyranoside]",32.70 µg/mL,–
"O=c1ccc2cc(O[C@@H]3O[C@H](CO)[C@@H](O)[C@H](O)[C@H]3O)c(O)cc2o1 [compound 14, aesculin]",> 100 µg/mL,–
"COc1cc(-c2oc3cc(O)cc(O)c3c(=O)c2O[C@@H]2O[C@H](CO[C@@H]3O[C@@H](C)[C@H](O)[C@@H](O)[C@H]3O)[C@@H](O)[C@H](O)[C@H]2O[C@@H]2O[C@@H](C)[C@H](O)[C@@H](O)[C@H]2O)ccc1O [compound 25, thyphaneoside]",> 100 µg/mL,–
"O=c1ccc2cc(O)c(O[C@@H]3O[C@H](CO)[C@@H](O)[C@H](O)[C@H]3O)cc2o1 [compound 15, cichoriin]",> 100 µg/mL,–
"O=c1c(O)c(-c2ccc(O)c(O)c2)oc2cc(O)cc(O)c12 [compound 17, quercetin]",1.79 µg/mL,–
"O=c1ccc2cc(O)c(O)cc2o1 [compound 13, aesculetin]",1.02 µg/mL,–
"O=C(OC[C@H]1OC(O)[C@H](O)[C@@H](O)[C@@H]1O)c1ccc(O)cc1 (stereo partly drawn) [compound 2, 6′-O-p-hydroxybenzoyl-β-D-glucopyranose]",> 100 µg/mL,–
"C[C@H]1O[C@H](O[C@H]2[C@H](O)[C@@H](O)[C@@H](O[C@H]3[C@H](O)[C@@H](O)C(O)O[C@@H]3CO)O[C@@H]2CO)[C@H](O)[C@@H](O)[C@@H]1N[C@H]1C=C(CO)[C@@H](O)[C@H](O)[C@H]1O (stereo partly shown) [Acarbose, reference compound]",9.54 ± 0.32 µg/mL,–
"O=C(OC[C@H]1OC(O)[C@H](O)[C@@H](O)[C@@H]1O)c1ccc(O)c(O)c1 (stereo partly drawn) [compound 4, 6′-O-protocatechuoyl-β-D-glucopyranose]",66.52 µg/mL,–
